Structures are written as SMILES. pIC50: −log10 of the molar value.

The subject of one assay is sh-DNMT1 NCI-H82 cell. Briefly: Cell viability (Promega CellTiter-Glo), sh-DNMT1 NCI-H82 cell. It counts as cell-based. To be noted: Homo sapiens, NCI-H82 cell with DNMT1 knocked down. The text has this:
(§1) The expression of NNMT protein in NCI-H82 cell was overexpressed by inserting the NNMT gene into NCI-H82 cell using a viral vector, and the NNMT protein-overexpressing NCI-H82 cell (ov-NNMT NCI-H82 cell) was obtained. The expression of DNMT1 in NCI-H82 cell was knocked down by transfecting shRNA (the nucleotide sequence of shRNA was […] (SEQ ID No: 3)) using a viral vector, and the NCI-H82 cell with low expression of DNMT1 protein (sh-DNMT1 NCI-H82 cell) was obtained. The control NCI-H82 cell (Con-NCI-H82 cell) was obtained by transfecting NCI-H82 cell with empty virus vector without carrying NNMT gene and shRNA. The expressing content of NNMT protein and DNMT1 protein in the Con-NCI-H82 cell, the expressing content of NNMT protein in the ov-NNMT NCI-H82 cell, and the expressing content of DNMT1 protein in the sh-DNMT1 NCI-H82 cell were detected using Western Blot assay (as shown in FIG. 3 and FIG. 4), it could be seen from FIG. 3 and FIG. 4 that the NNMT protein was overexpressed in the ov-NNMT NCI-H82 cell and the expression of DNMT1 protein was knocked down (i.e, low expression) in the sh-DNMT1 NCI-H82 cell compared with the expression level of NNMT protein and DNMT1 protein in the Con-NCI-H82 cell.
In general terms: Cellular ATP, detected with luciferase, serves as a proxy for viable cell number.

The next assay deals with mPTP-inactive Daoy cell. The experiment in a line: Cell viability (Promega CellTiter-Glo), mPTP-inactive Daoy cell. To be noted: Homo sapiens, Daoy cell transfected with PPIF shRNA vector. It counts as cell-based.
Another assay deals with mPTP-active Daoy cell. The experiment in a line: Cell viability (Promega CellTiter-Glo), mPTP-active Daoy cell. It counts as cell-based. The following applies: Homo sapiens, Daoy cell transfected with empty virus vector.
A further assay concerns Con-NCI-H82 cell. The experiment in a line: Cell viability (Promega CellTiter-Glo), Con-NCI-H82 cell. To be noted: Homo sapiens, NCI-H82 cell transfected with empty virus vector. It counts as cell-based.
Source text: as §1

The next assay relates to ov-NNMT NCI-H82 cell. The experiment in a line: Cell viability (Promega CellTiter-Glo), ov-NNMT NCI-H82 cell. It counts as cell-based. The following applies: Homo sapiens, NCI-H82 cell overexpressing NNMT protein.
Source text: as §1

Assay [1] has as its system Daoy cell transfected with empty virus vector without carrying shRNA. Briefly: Mitochondria membrane potential difference by TMRM in Daoy cell transfected with empty virus vector (Con shRNA). It counts as cell-based, human. To be noted: H2O2 +, CsA −.
The next assay relates to Daoy cell. The experiment in a line: Mitochondria membrane potential difference by TMRM in Daoy cell (mPTP activity). It counts as cell-based, human. The following applies: H2O2 +, CsA −. The text has this: For cells with active mitochondria permeability transition pore, adding peroxide (such as H2O2) could increase the activity of mitochondria permeability transition pore, resulting in a decrease in mitochondria membrane potential.

Assay [2] relates to Daoy cell transfected with virus vector carrying shRNA that could specifically induce the degradation of PPIF mRNA. Briefly: Mitochondria membrane potential difference by TMRM in Daoy cell transfected with PPIF shRNA. The following applies: H2O2 +, CsA −. In kind it is cell-based, human.

A word on the IC50: it is the point on the concentration scale where inhibition reaches its midpoint. By pIC50 is commonly meant the negative decadic logarithm of the IC50, by convention in mol/L. Higher therefore signals a small IC50. Regarding `COc1ccc2cc3[n+](cc2c1N1CCC(Cl)CC1)CCc1cc2c(cc1-3)OCO2` [Compound SJ0004], the IC50 in the assay with sh-DNMT1 NCI-H82 cell stood at 2.96 µM; in the assay with Con-NCI-H82 cell, 0.74 µM; in the assay on ov-NNMT NCI-H82 cell, 1.94 µM. The pIC50 in the assay on mPTP-inactive Daoy cell was 5.62; with mPTP-active Daoy cell, 5.13.

On to `COc1ccc2cc3[n+](cc2c1N1CCC(C(F)(F)F)CC1)CCc1cc2c(cc1-3)OCCO2` [Compound SJ0010], for which the IC50 came out at 2.54 µM in the assay with sh-DNMT1 NCI-H82 cell, 0.45 µM with Con-NCI-H82 cell and 0.89 µM in the assay on ov-NNMT NCI-H82 cell. The pIC50 in the assay on mPTP-inactive Daoy cell was 5.68; in the assay with mPTP-active Daoy cell, 5.20.

For `COc1ccc2cc3[n+](cc2c1N1CCOC(C)C1)CCc1cc2c(cc1-3)OCO2` (stereo not drawn) [Compound AB35540], the figures for the IC50 in the assay with sh-DNMT1 NCI-H82 cell, in the assay with Con-NCI-H82 cell and in the assay with ov-NNMT NCI-H82 cell were 19 µM, 5.05 µM and 10.4 µM, respectively. The pIC50 with mPTP-inactive Daoy cell was 5.23; in the assay on mPTP-active Daoy cell, 4.81.

Take `COc1ccc2cc3[n+](cc2c1N1CCCC(C)C1)CCc1cc2c(cc1-3)OCO2` (stereo not drawn) [Compound AB35530]: the IC50 in the assay on sh-DNMT1 NCI-H82 cell turned out to be 1.76 µM; in the assay on Con-NCI-H82 cell, 0.32 µM; with ov-NNMT NCI-H82 cell, 0.72 µM. The pIC50 in the assay on mPTP-inactive Daoy cell was 6.26; in the assay on mPTP-active Daoy cell it was 5.61.

Consider `COc1ccc2cc3[n+](cc2c1N1CCCCCC1)CCc1cc2c(cc1-3)OCO2` [Compound AB36413], for which the IC50 in the assay with sh-DNMT1 NCI-H82 cell stood at 1.58 µM; with Con-NCI-H82 cell, 0.29 µM; in the assay with ov-NNMT NCI-H82 cell, 0.85 µM. In addition, the figures for the pIC50 with mPTP-inactive Daoy cell and in the assay on mPTP-active Daoy cell were 6.49 and 5.90, respectively.

`COc1ccc2cc3[n+](cc2c1N1CCC(C)CC1)CCc1cc2c(cc1-3)OCO2` [Compound SJ0001]: the IC50 in the assay with sh-DNMT1 NCI-H82 cell came to 1.12 µM; in the assay on Con-NCI-H82 cell, 0.14 µM; in the assay on ov-NNMT NCI-H82 cell, 0.58 µM. For the same compound, the pIC50 was 6.28 in the assay on mPTP-inactive Daoy cell and 5.87 in the assay with mPTP-active Daoy cell.

`COc1ccc2cc3[n+](cc2c1N1CCC(F)(F)CC1)CCc1cc2c(cc1-3)OCO2` [Compound AB35556]: the IC50 in the assay with sh-DNMT1 NCI-H82 cell stood at 9.86 µM; in the assay with Con-NCI-H82 cell, 2.57 µM; in the assay on ov-NNMT NCI-H82 cell, 5.85 µM. The results for the pIC50 in the assay on mPTP-inactive Daoy cell and in the assay with mPTP-active Daoy cell were 5.50 and 5.14, respectively.

Turning to `OO` [Compound H2O2, H2O2], the “Relative TMRM signal intensity (%), mean value” was 79% in assay [1] and 95% in assay [2]. Moreover, the “Relative TMRM signal intensity (%) in Daoy cell after different treatments, mean value” in the assay with Daoy cell was 82%.

Consider `COc1ccc2cc3[n+](cc2c1N1CCC(C)CC1)CCc1cc2c(cc1-3)OCCO2` [Compound SJ0009], for which the IC50 was 1.33 µM in the assay on sh-DNMT1 NCI-H82 cell, 0.18 µM with Con-NCI-H82 cell and 0.55 µM in the assay on ov-NNMT NCI-H82 cell. Besides, the negative logarithm of the IC50 (pIC50) in the assay on mPTP-inactive Daoy cell was 6.33; in the assay with mPTP-active Daoy cell, 5.69.

On to `COc1ccc2cc3[n+](cc2c1N1CCCCC1)CCc1cc2c(cc1-3)OCO2` [Compound AB36492], for which the IC50 turned out to be 1.46 µM in the assay with sh-DNMT1 NCI-H82 cell, 0.21 µM with Con-NCI-H82 cell and 0.68 µM with ov-NNMT NCI-H82 cell. The pIC50 is 6.34 in the assay on mPTP-inactive Daoy cell and 5.78 in the assay on mPTP-active Daoy cell.

Take `COc1ccc2cc3[n+](cc2c1N1CCC(F)CC1)CCc1cc2c(cc1-3)OCO2` [Compound AB35551]: the values for the IC50 in the assay with sh-DNMT1 NCI-H82 cell, in the assay on Con-NCI-H82 cell and with ov-NNMT NCI-H82 cell were 5.96 µM, 1.57 µM and 3.48 µM, respectively. In addition, the pIC50 in the assay on mPTP-inactive Daoy cell was 5.71; in the assay on mPTP-active Daoy cell, 5.24.

For the compound `COc1ccc2cc3[n+](cc2c1N1CCC(C(F)(F)F)CC1)CCc1cc2c(cc1-3)OCO2` [Compound SJ0002], the IC50 in the assay on sh-DNMT1 NCI-H82 cell was 2.03 µM; in the assay with Con-NCI-H82 cell, 0.32 µM; in the assay on ov-NNMT NCI-H82 cell, 0.88 µM. In addition, the values for the pIC50 in the assay on mPTP-inactive Daoy cell and in the assay on mPTP-active Daoy cell were 5.81 and 5.29, respectively.

With `COc1ccc2cc3[n+](cc2c1N1CCC2(CCO2)CC1)CCc1cc2c(cc1-3)OCO2` [Compound AB35575], the figures for the concentration for half-maximal inhibition (IC50) in the assay with sh-DNMT1 NCI-H82 cell, in the assay with Con-NCI-H82 cell and with ov-NNMT NCI-H82 cell were 14.8 µM, 4.07 µM and 8.96 µM, respectively. Further, the pIC50 in the assay on mPTP-inactive Daoy cell was 5.23; in the assay on mPTP-active Daoy cell, 4.57.

As to `COc1ccc2cc3[n+](cc2c1N1CCCC1)CCc1cc2c(cc1-3)OCO2` [Compound AB35555], the IC50 in the assay on sh-DNMT1 NCI-H82 cell was 2.19 µM; in the assay with Con-NCI-H82 cell it was 0.37 µM; with ov-NNMT NCI-H82 cell, 1.02 µM. The values for the negative logarithm of the IC50 (pIC50) in the assay with mPTP-inactive Daoy cell and with mPTP-active Daoy cell were 6.35 and 5.80, respectively.

For `COc1ccc2cc3[n+](cc2c1N1CCCCC1C)CCc1cc2c(cc1-3)OCO2` (stereo not drawn) [Compound AB35528], the IC50 in the assay on sh-DNMT1 NCI-H82 cell worked out at 1.48 µM; with Con-NCI-H82 cell it was 0.27 µM; in the assay with ov-NNMT NCI-H82 cell it was 0.68 µM. The pIC50 in the assay on mPTP-inactive Daoy cell is 6.38; in the assay with mPTP-active Daoy cell it was 5.83.

Regarding `COc1ccc2cc3[n+](cc2c1N1CCC(Cl)CC1)CCc1cc2c(cc1-3)OCCO2` [Compound SJ0012], the figures for the IC50 in the assay on sh-DNMT1 NCI-H82 cell, in the assay with Con-NCI-H82 cell and in the assay on ov-NNMT NCI-H82 cell were 3.88 µM, 0.97 µM and 2.35 µM, respectively. Further, the pIC50 in the assay on mPTP-inactive Daoy cell was 5.68; in the assay on mPTP-active Daoy cell it was 5.16.
